Data published in PubChem BioAssay AID977623 (Broad Institute, 2014).
Records with an inconclusive call do not appear. Activity calls are given as the source filed them.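 How the source made its calls: active means red signal of normal-ribosome cells cut twice as much as green signal of humanized-ribosome cells, growth loss under 30%; inactive means the rest, inconclusive results apart.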

Assays:
[1] = wild-type E. coli growth inhibition versus H69 humanized strain – H69 mutant GFP, wild-type RFP, cherry-pick, dose response (AID 977623); conditions: E. coli WT-RFP/H69-GFP mixed culture, fluorescence, 24 h
[2] = system: E. coli WT-RFP/H69-GFP mixed culture, fluorescence, 24 h; assay: as above
[3] = E. coli WT-RFP/H69-GFP mixed culture, 24 h, measured here: total growth OD600
[4] = measured here: H69 humanized strain GFP growth

Row | SMILES | activity change, negative = inhibition ([1]; at 50 µM (top of the series)) | AC50 [2, 3] | AC50 [2] | AC50 [2, 4] | activity change, negative = inhibition ([1]; at 26 µM (top of the series))
1 | COc1ccc2[nH]c3c(=O)n(CCCCC(=O)NCCC(C)C)c(=S)[nH]c3c2c1 | 100 (inactive) |  |  |  | 
2 | COc1ccc(Cn2c(-c3ccc(Cl)cc3)c[n+]3ccccc23)cc1 | 26.5 (inactive) | 47.2 µM |  |  | 
3 | COc1ccc(NC(=O)c2ccc(-c3ccc([N+](=O)[O-])cc3)o2)cc1 |  | 5.6 µM | > 100 µM (inactive) | > 100 µM | 
4 | C[C@@H]1CCCCO[C@H](CN(C)C(=O)CCCN(C)C)[C@H](C)CN([C@@H](C)CO)C(=O)c2cc(NC(=O)Nc3cccc4ccccc34)ccc2O1 | 102 (inactive) |  |  | > 100 µM | 
5 | COc1cc2c(cc1[N+](=O)[O-])-c1ccc([N+](=O)[O-])cc1C2 |  | 2.76 µM |  | > 100 µM | 77.3 (inactive)
6 | O=C(O)c1cc([N+](=O)[O-])ccc1NCc1ccccc1 | 3.75 (inactive) | 15.2 µM |  |  | 
7 | CCOC(=O)c1c(NC(=O)Cc2cccs2)sc(C)c1C | 24.9 (inactive) | 9.61 µM |  | 47.4 µM | 
8 | Cc1noc(C)c1NC(=O)Nc1ccc2c(c1)C(=O)N([C@H](C)CO)C[C@@H](C)[C@@H](CN(C)C(=O)Nc1ccc3c(c1)OCO3)OCCCC[C@@H](C)O2 | 153 (inactive) | > 100 µM |  |  | 
9 | Cc1ccc(C)c(NC(=O)CSc2nc3nc(-c4cccs4)cc(C(F)(F)F)c3c(=O)[nH]2)c1 | 16.1 (inactive) | 10.3 µM |  | 12.8 µM | 
